Earlier results, collected in US10369185B2, “Methods and compositions for enhancement of ability to concentrate” (KYOWA HAKKO BIO CO., LTD., priority 2014, dated 2019).

Conditions: alanylglutamine compared to glutamine; cited from earlier work

## NC(=O)CC[C@H](N)C(=O)O [glutamine, reference compound]
  solubility in aqueous solutions: low-solubility
